Results from patent US4220637A (Agence Nationale de Valorisation de la Recherche, priority 1976, dated 1980).

System: rabbits
Assay: pyrogenic effect test on rabbits (Pharmacopee Francaise, 9th edition, II-235)
Assay type: in vivo

## CC(=O)N[C@H]1C(O)O[C@H](CO)[C@@H](O)[C@@H]1O[C@H](C)C(=O)N[C@@H](C)C(=O)N[C@H](CCC(N)=O)C(N)=O (stereo partly drawn) [Mur-NAc-L-Ala-D-Glu(NH2)--NH2, diamide of the 2-(2-acetamido-2-deoxy-3-O-D-glucopyranosyl)-D-propionyl-L-alanyl-D-glutamic acid]
2 mg/kg, sub-cutaneously and intravenously
  increase of temperature: did not induce any increase of temperature
Pharmacopee Francaise protocol
  pyrogenic effect: fully devoid of any pyrogenic effect
